Data: ChEMBL document CHEMBL5236605, “Design and synthesis of dual cathepsin L and S inhibitors and antimetastatic activity evaluation in pancreatic cancer cells” (Bioorg Med Chem Lett, 2023)
The source made the active and inactive calls. The calls are words filed in the database; no cut-off is given here.

Experiments:
Cathepsin K = molecular target: T1, Cathepsin K (Homo sapiens, UniProt P43235); assay: Inhibition of human cathepsin K
T1 sequence (P43235 whole entry): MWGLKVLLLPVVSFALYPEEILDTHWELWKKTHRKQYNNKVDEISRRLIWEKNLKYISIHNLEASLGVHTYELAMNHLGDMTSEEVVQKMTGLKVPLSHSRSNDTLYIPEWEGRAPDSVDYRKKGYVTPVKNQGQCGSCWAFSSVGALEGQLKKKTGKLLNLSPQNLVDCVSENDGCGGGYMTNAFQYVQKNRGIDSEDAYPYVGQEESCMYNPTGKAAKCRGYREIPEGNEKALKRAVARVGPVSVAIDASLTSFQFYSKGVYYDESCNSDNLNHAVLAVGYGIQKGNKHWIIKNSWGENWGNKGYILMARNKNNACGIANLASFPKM

Cathepsin S [1] = molecular target: T2, Cathepsin S (Homo sapiens, UniProt P25774); assay: Inhibition of human cathepsin S
Target sequence in this assay (P25774 whole entry): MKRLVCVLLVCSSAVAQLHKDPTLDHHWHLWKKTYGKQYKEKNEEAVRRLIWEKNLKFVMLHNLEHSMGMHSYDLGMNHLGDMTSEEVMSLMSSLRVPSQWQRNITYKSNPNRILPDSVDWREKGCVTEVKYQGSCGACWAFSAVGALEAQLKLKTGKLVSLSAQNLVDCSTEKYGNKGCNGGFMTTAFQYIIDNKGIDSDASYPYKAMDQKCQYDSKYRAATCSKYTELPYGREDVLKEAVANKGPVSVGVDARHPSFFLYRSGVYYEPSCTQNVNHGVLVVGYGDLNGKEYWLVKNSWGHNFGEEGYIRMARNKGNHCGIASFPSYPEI

Procathepsin L [2] = molecular target: T3, Procathepsin L (Homo sapiens, UniProt P07711); assay: Inhibition of human cathepsin L
Target sequence in this assay (P07711 whole entry): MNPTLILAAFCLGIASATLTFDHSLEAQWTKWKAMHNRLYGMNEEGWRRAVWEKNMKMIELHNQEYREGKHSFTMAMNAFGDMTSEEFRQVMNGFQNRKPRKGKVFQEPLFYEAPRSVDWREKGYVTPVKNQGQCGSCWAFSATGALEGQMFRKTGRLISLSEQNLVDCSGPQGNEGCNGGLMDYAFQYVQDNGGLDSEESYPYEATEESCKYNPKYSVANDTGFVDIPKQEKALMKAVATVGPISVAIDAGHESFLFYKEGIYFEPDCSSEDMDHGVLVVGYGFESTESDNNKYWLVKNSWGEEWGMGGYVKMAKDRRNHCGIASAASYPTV

Cathepsin B = Cathepsin B (Homo sapiens, UniProt P07858); assay: Inhibition of human cathepsin B
PANC-1 [3] = assay: Anti-invasive activity in human PANC-1 cells assessed as reduction in cell invasion at 6.25 to 25 uM incubated for 24 hrs by crystal violet staining based transwell migration assay; type: functional; conditions: dose 6.25-25 µM
Procathepsin L [4] = molecular target: T3, Procathepsin L; assay: Inhibition of cathepsin L activity in human BXPC-3 cells at 6.25 to 25 uM incubated for 48 hrs by fluorescence-based assay; type: cell-based; conditions: dose 6.25-25 µM
Target sequence in this assay (P07711 114-333 limits assumed): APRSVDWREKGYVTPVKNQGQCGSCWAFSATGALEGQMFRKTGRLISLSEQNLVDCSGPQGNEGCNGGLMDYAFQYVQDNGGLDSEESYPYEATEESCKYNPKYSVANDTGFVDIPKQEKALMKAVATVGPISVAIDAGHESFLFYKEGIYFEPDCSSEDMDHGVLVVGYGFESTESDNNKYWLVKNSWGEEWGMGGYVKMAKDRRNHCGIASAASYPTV

PANC-1 [5] = assay: Antimetastatic activity in human PANC-1 cells assessed as reduction in cell migration at 6.25 to 25 uM incubated for 48 hrs by wound healing assay; type: functional, cell-based; conditions: dose 6.25-25 µM
Cathepsin S [6] = molecular target: T2, Cathepsin S; assay: Inhibition of cathepsin S activity in human BXPC-3 cells at 6.25 to 25 uM incubated for 48 hrs by fluorescence-based assay; type: cell-based; conditions: dose 6.25-25 µM
Target sequence in this assay (P25774 115-331 limits assumed): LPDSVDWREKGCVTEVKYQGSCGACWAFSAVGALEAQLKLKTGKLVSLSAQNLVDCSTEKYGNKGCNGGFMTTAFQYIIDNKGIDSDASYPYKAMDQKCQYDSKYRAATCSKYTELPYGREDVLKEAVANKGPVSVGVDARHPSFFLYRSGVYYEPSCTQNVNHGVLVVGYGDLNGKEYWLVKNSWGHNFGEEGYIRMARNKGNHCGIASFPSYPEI

BXPC-3 [7] = assay: Anti-invasive activity in human BXPC-3 cells assessed as reduction in cell invasion at 6.25 to 25 uM incubated for 24 hrs by crystal violet staining based transwell migration assay; type: functional; conditions: dose 6.25-25 µM
BXPC-3 [8] = assay: Antimetastatic activity in human BXPC-3 cells assessed as reduction in cell migration at 6.25 to 25 uM incubated for 48 hrs by wound healing assay; type: functional, cell-based; conditions: dose 6.25-25 µM
Cathepsin S [9] = molecular target: T2, Cathepsin S; assay: Inhibition of cathepsin S activity in human PANC-1 cells at 6.25 to 25 uM incubated for 48 hrs by fluorescence-based assay; type: cell-based; conditions: dose 6.25-25 µM
Target sequence in this assay (P25774 115-331 limits assumed): as above

BXPC-3 [10] = assay: Antiproliferative activity against human BxPC-3 cells assessed as reduction of cell viability at <25 uM by MTT assay; type: functional
PANC-1 [11] = assay: Antiproliferative activity against human PANC-1 cells assessed as effect on cathepsin L mRNA expression level at 6.25 to 25 uM incubated for 48 hrs by RT-PCR analysis; type: functional, cell-based; conditions: dose 6.25-25 µM
BXPC-3 [12] = assay: Antiproliferative activity against human BxPC-3 cells assessed as effect on cathepsin L mRNA expression level at 6.25 to 25 uM incubated for 48 hrs by RT-PCR analysis; type: functional, cell-based; conditions: dose 6.25-25 µM
PANC-1 [13] = assay: Antiproliferative activity against human PANC-1 cells assessed as reduction of cell viability at <25 uM by MTT assay; type: functional
Procathepsin L [14] = molecular target: T3, Procathepsin L; assay: Inhibition of cathepsin L activity in human PANC-1 cells at 6.25 to 25 uM incubated for 48 hrs by fluorescence-based assay; type: cell-based; conditions: dose 6.25-25 µM
Target sequence in this assay (P07711 114-333 limits assumed): as the sequence (P07711 114-333 limits assumed) above

Structure (SMILES) | IC50 (Cathepsin K) | IC50 (Cathepsin S [1]) | IC50 (Procathepsin L [2]) | IC50 (Cathepsin B) | also measured
N#Cc1ccccc1N1CCN(C[C@@H](O)COC[C@@H](Cc2ccccc2)NC(=O)C2CCN(C(=O)OCc3ccccc3)CC2)CC1 | > 100 µM | > 100 µM | > 100 µM | > 100 µM | 
N#Cc1ccccc1N1CCN(C[C@H](O)COC[C@@H](Cc2ccccc2)NS(=O)(=O)c2ccc(C(F)(F)F)cc2)CC1 | > 100 µM | 40.4 µM | 40.7 µM | > 100 µM | 
N#Cc1ccccc1N1CCN(C[C@H](O)COC[C@H](Cc2ccccc2)NS(=O)(=O)c2ccc(C(F)(F)F)cc2)CC1 | > 100 µM | 30.7 µM | 41.1 µM | > 100 µM | 
N#Cc1ccccc1N1CCN(C[C@@H](O)COC[C@H](Cc2ccccc2)NC(=O)c2ccncc2)CC1 | > 100 µM | 28.8 µM | 18.6 µM | > 100 µM | 
N#Cc1ccccc1N1CCN(C[C@@H](O)COC[C@H](Cc2ccccc2)NC(=O)C2CCN(C(=O)OCc3ccccc3)CC2)CC1 | > 100 µM | 22.7 µM | 19.5 µM | > 100 µM | 
N#Cc1ccccc1N1CCN(C[C@@H](O)COC[C@@H](Cc2ccccc2)NC(=O)c2ccncc2)CC1 | > 100 µM | 48.9 µM | 29.8 µM | > 100 µM | 
N#Cc1ccccc1N1CCN(C[C@H](O)COC[C@H](Cc2ccccc2)NC(=O)c2ccncc2)CC1 | > 100 µM | 16.1 µM | 9.37 µM | > 100 µM | 
N#Cc1ccccc1N1CCN(C[C@H](O)COC[C@@H](Cc2ccccc2)NC(=O)C2CCN(C(=O)OCc3ccccc3)CC2)CC1 | > 100 µM | > 100 µM | > 100 µM | > 100 µM | 
N#Cc1ccccc1N1CCN(C[C@H](O)COC[C@@H](Cc2ccccc2)NC(=O)c2ccncc2)CC1 | > 100 µM | 23.1 µM | 46.2 µM | > 100 µM | 
N#Cc1ccccc1N1CCN(C[C@H](O)COC[C@H](Cc2ccccc2)NC(=O)C2CCN(C(=O)OCc3ccccc3)CC2)CC1 | > 100 µM | 11.1 µM | 14.5 µM | > 100 µM | 
N#Cc1ccccc1N1CCN(C[C@@H](O)COC[C@H](Cc2ccccc2)NS(=O)(=O)c2ccc(C(F)(F)F)cc2)CC1 | > 100 µM | 29.2 µM | 45.9 µM | > 100 µM | 
N#Cc1ccccc1N1CCN(C[C@@H](O)COC[C@@H](Cc2ccccc2)NS(=O)(=O)c2ccc(C(F)(F)F)cc2)CC1 | > 100 µM | 22.3 µM | 10.5 µM | > 100 µM | 

The next lines start with results.

IC50 (Cathepsin K) | IC50 (Cathepsin S [1]) | IC50 (Procathepsin L [2]) | IC50 (Cathepsin B) | Structure (SMILES) | also measured
> 100 µM | 7.72 µM | 8.53 µM | > 100 µM | N#Cc1ccccc1N1CCN(C[C@H](O)COC[C@H](Cc2ccccc2)NS(=O)(=O)c2ccc(Br)cc2)CC1 | 
> 100 µM | 41 µM | 23.9 µM | > 100 µM | COc1cccc(/C=C/C(=O)NC[C@@H](Cc2ccccc2)NS(=O)(=O)c2ccc(Br)cc2)c1 | 
> 100 µM | > 100 µM | > 100 µM | > 100 µM | COc1ccc(/C=C/C(=O)NC[C@H](Cc2ccccc2)NS(=O)(=O)c2ccc(C(F)(F)F)cc2)cc1OC | 
> 100 µM | > 100 µM | > 100 µM | > 100 µM | COc1ccc(/C=C/C(=O)NC[C@H](Cc2ccccc2)NS(=O)(=O)c2ccc(Br)cc2)cc1OC | 
> 100 µM | 64.5 µM | 51.7 µM | > 100 µM | COc1cccc(/C=C/C(=O)NC[C@@H](Cc2ccccc2)NS(=O)(=O)c2ccc(C(F)(F)F)cc2)c1 | 
> 100 µM | 4.38 µM | 7.5 µM | > 100 µM | N#Cc1ccccc1N1CCN(C[C@H](O)COC[C@@H](Cc2ccccc2)NS(=O)(=O)c2ccc(Br)cc2)CC1 | 
> 100 µM | > 100 µM | > 100 µM | > 100 µM | COc1cccc(/C=C/C(=O)NC[C@H](Cc2ccccc2)NS(=O)(=O)c2ccc(C(F)(F)F)cc2)c1 | 
> 100 µM | 5.02 µM | 6.03 µM | > 100 µM | O=C(OC[C@@H](Cc1ccccc1)NS(=O)(=O)c1ccc(Br)cc1)[C@@H](Cc1ccccc1)NS(=O)(=O)c1ccccc1 | 
> 100 µM | 21.2 µM | 12.3 µM | > 100 µM | COc1ccc(/C=C/C(=O)NC[C@@H](Cc2ccccc2)NS(=O)(=O)c2ccc(C(F)(F)F)cc2)cc1OC | 
> 100 µM | 1.79 µM | 4.1 µM | > 100 µM | N#Cc1ccccc1N1CCN(C[C@@H](O)COC[C@@H](Cc2ccccc2)NS(=O)(=O)c2ccc(Br)cc2)CC1 | Activity (PANC-1 [3]): Dose-Dependent Effect; inhibition (Procathepsin L [4]): Dose-Dependent Effect; Activity (PANC-1 [5]): Dose-Dependent Effect; inhibition (Cathepsin S [6]): Dose-Dependent Effect; Activity (BXPC-3 [7]): Dose-Dependent Effect; Activity (BXPC-3 [8]): Dose-Dependent Effect; inhibition (Cathepsin S [9]): Dose-Dependent Effect; Activity (BXPC-3 [10]): 100%; Activity (PANC-1 [11]): inactive; Activity (BXPC-3 [12]): inactive; Activity (PANC-1 [13]): 100%; inhibition (Procathepsin L [14]): Dose-Dependent Effect
> 100 µM | > 100 µM | > 100 µM | > 100 µM | COc1ccc(/C=C/C(=O)NC[C@@H](Cc2ccccc2)NS(=O)(=O)c2ccc(Br)cc2)cc1OC | 
> 100 µM | > 100 µM | > 100 µM | > 100 µM | COc1cccc(/C=C/C(=O)NC[C@H](Cc2ccccc2)NS(=O)(=O)c2ccc(Br)cc2)c1 | 
> 100 µM | 5.46 µM | 5.47 µM | > 100 µM | N#Cc1ccccc1N1CCN(C[C@@H](O)COC[C@H](Cc2ccccc2)NS(=O)(=O)c2ccc(Br)cc2)CC1 | 
